According to patent publication EP2758401B1 (Bayer Intellectual Property GmbH, priority 2011, dated 2013):
Structures can show the parent of a compound that is named as a salt.

Assays:
[1] = biological target: T1, MKNK1 (Homo sapiens, UniProt Q9BUB5, T385D); assay: MKNK1 kinase assay (TR-FRET); format: biochemical; conditions: ATP final conc. 10 µM; 15 min pre-incubation; reaction time 45 min at 22°C
T1 construct: GST (N); purchased Carna Biosciences 02-145; host or cells: insect cells (baculovirus expression system)
Experimental: MKNK1-inhibitory activity of compounds of the present invention was quantified employing the MKNK1 TR-FRET assay as described in the following paragraphs.
As substrate for the kinase reaction the biotinylated peptide biotin-Ahx-[…] (C-terminus in amide form) was used which can be purchased e.g. form the company Biosyntan (Berlin-Buch, Germany).
For the assay 50 nL of a 100fold concentrated solution of the test compound in DMSO was pipetted into a black low volume 384well microtiter plate (Greiner Bio-One, Frickenhausen, Germany), 2 µL of a solution of MKNK1 in aqueous assay buffer [50 mM HEPES pH 7.5, 5 mM magnesium chloride, 1.0 mM dithiothreitol, 0.005% (v/v) Nonidet-P40 (Sigma)] was added and the mixture was incubated for 15 min at 22°C to allow pre-binding of the test compounds to the enzyme before the start of the kinase reaction. Then the kinase reaction was started by the addition of 3 µL of a solution of adenosine-tri-phosphate (ATP, 16.7 µM => final conc. in the 5 µL assay volume is 10 µM) and substrate (0.1 µM => final conc. in the 5 µL assay volume is 0.06 µM) in assay buffer and the resulting mixture was incubated for a reaction time of 45 min at 22°C.
The resulting mixture was incubated for 1 h at 22°C to allow the formation of complex between the phosphorylated biotinylated peptide and the detection reagents. Subsequently the amount of phosphorylated substrate was evaluated by measurement of the resonance energy transfer from the Eu-chelate to the streptavidine-XL. Therefore, the fluorescence emissions at 620 nm and 665 nm after excitation at 350 nm were measured in a TR-FRET reader, e.g. a Rubystar (BMG Labtechnologies, Offenburg, Germany) or a Viewlux (Perkin-Elmer). The ratio of the emissions at 665 nm and at […] was taken as the measure for the amount of phosphorylated substrate. The data were normalised (enzyme reaction without inhibitor = 0 % inhibition, all other assay components but no enzyme = 100 % inhibition). […] Table 1: MKNK1 IC50s

[2] = biological target: T1, MKNK1; assay: MKNK1 kinase high ATP assay (TR-FRET); format: biochemical; conditions: ATP final conc. 2 mM; 15 min pre-incubation; reaction time 30 min at 22°C
Experimental: MKNK1-inhibitory activity at high ATP of compounds of the present invention after their preincubation with MKNK1 was quantified employing the TR-FRET-based MKNK1 high ATP assay as described in the following paragraphs.
As substrate for the kinase reaction the biotinylated peptide biotin-Ahx-[…] (C-terminus in amide form) was used, which can be purchased e.g. from the company Biosyntan (Berlin-Buch, Germany).
For the assay 50 nL of a 100fold concentrated solution of the test compound in DMSO was pipetted into a black low volume 384well microtiter plate (Greiner Bio-One, Frickenhausen, Germany), 2 µL of a solution of MKNK1 in aqueous assay buffer [50 mM HEPES pH 7.5, 5 mM magnesium chloride, 1.0 mM dithiothreitol, 0.005% (v/v) Nonidet-P40 (Sigma)] was added and the mixture was incubated for 15 min at 22°C to allow pre-binding of the test compounds to the enzyme before the start of the kinase reaction. Then the kinase reaction was started by the addition of 3 µL of a solution of adenosine-tri-phosphate (ATP, 3.3 mM => final conc. in the 5 µL assay volume is 2 mM) and substrate (0.1 µM => final conc. in the 5 µL assay volume is 0.06 µM) in assay buffer and the resulting mixture was incubated for a reaction time of 30 min at 22°C. The concentration of MKNK1 was adjusted depending of the activity of the enzyme lot and was chosen appropriate to have the assay in the linear range, typical concentrations were in the range of 0.003 µg/mL. The reaction was stopped by the addition of 5 µL of a solution of TR-FRET detection reagents (5 nM streptavidine-XL665 [Cisbio Bioassays, Codolet, France] and 1 nM anti-ribosomal protein S6 (pSer236)-antibody from Invitrogen [# 44921G] and 1 nM LANCE EU-W1024 labeled ProteinG [Perkin-Elmer, product no. AD0071]) in an aqueous EDTA-solution (100 mM EDTA, 0.1 % (w/v) bovine serum albumin in 50 mM HEPES pH 7.5).
The resulting mixture was incubated for 1 h at 22°C to allow the formation of complex between the phosphorylated biotinylated peptide and the detection reagents. Subsequently the amount of phosphorylated substrate was evaluated by measurement of the resonance energy transfer from the Eu-chelate to the streptavidine-XL. Therefore, the fluorescence emissions at 620 nm and 665 nm after excitation at 350 nm were measured in a TR-FRET reader, e.g. a Rubystar (BMG Labtechnologies, Offenburg, Germany) or a Viewlux (Perkin-Elmer). The ratio of the emissions at 665 nm and at […] was taken as the measure for the amount of phosphorylated substrate. The data were normalised (enzyme reaction without inhibitor = 0 % inhibition, all other assay components but no enzyme = 100 % inhibition).

T1 sequence (Q9BUB5 1-424 isoform Q9BUB5-2 T344D): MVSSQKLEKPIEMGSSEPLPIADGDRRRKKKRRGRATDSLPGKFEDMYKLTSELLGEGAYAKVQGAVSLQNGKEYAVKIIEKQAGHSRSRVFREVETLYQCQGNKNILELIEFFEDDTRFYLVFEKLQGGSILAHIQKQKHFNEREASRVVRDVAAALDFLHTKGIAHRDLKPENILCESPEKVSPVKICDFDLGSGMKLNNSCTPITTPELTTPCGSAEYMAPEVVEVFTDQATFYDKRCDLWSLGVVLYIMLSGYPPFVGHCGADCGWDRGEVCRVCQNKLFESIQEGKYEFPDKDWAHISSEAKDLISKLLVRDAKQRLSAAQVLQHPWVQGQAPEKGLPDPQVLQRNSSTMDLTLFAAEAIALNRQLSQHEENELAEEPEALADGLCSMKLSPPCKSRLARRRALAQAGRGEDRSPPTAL

SMILES	IC50 [1]	IC50 [2]
NCCCOc1ccc2ncc(-c3cc4ccccc4o3)n2n1 [Example 11, 3-{[3-(1-Benzofuran-2-yl)imidazo[1,2-b]pyridazin-6-yl]oxy}propan-1-amine]	0.008 µM	0.024 µM
NCCOc1ccc2ncc(-c3cc4ccccc4o3)n2n1 [Example 12, 2-{[3-(1-Benzofuran-2-yl)imidazo[1,2-b]pyridazin-6-yl]oxy}ethanamine]	0.01 µM	0.027 µM
CC(C)(N)CCOc1ccc2ncc(-c3cc4ccccc4o3)n2n1 [Example 14, 4-{[3-(1-Benzofuran-2-yl)imidazo[1,2-b]pyridazin-6-yl]oxy}-2-methylbutan-2-amine]	0.02 µM	0.039 µM
C[C@H](CN)Oc1ccc2ncc(-c3cc4cc(Cl)ccc4o3)n2n1 [Example 15, (2R)-2-{[3-(5-Chloro-1-benzofuran-2-yl)imidazo[1,2-b]pyridazin-6-yl]oxy}-propan-1-amine]	0.036 µM	0.197 µM
NC[C@H](Oc1ccc2ncc(-c3cc4ccccc4o3)n2n1)c1ccccc1 [Example 16, (2R)-2-{[3-(1-Benzofuran-2-yl)imidazo[1,2-b]pyridazin-6-yl]oxy}-2-phenylethan-amine]	0.026 µM	0.049 µM
N[C@H](COc1ccc2ncc(-c3cc4ccccc4o3)n2n1)c1ccccc1 [Example 17, (1S)-2-{[3-(1-Benzofuran-2-yl)imidazo[1,2-b]pyridazin-6-yl]oxy}-1-phenylethan-amine]	0.006 µM	0.01 µM
N[C@@H](COc1ccc2ncc(-c3cc4ccccc4o3)n2n1)c1ccccc1 [Example 18, (1R)-2-{[3-(1-Benzofuran-2-yl)imidazo[1,2-b]pyridazin-6-yl]oxy}-1-phenyl-ethanamine]	0.022 µM	0.033 µM
N[C@H](COc1ccc2ncc(-c3cc4cc(Cl)ccc4o3)n2n1)c1ccccc1 [Example 19, (1S)-2-{[3-(5-Chloro-1-benzofuran-2-yl)imidazo[1,2-b]pyridazin-6-yl]oxy}-1-phenylethanamine]	0.025 µM	0.111 µM
NC[C@H]1C[C@H](Oc2ccc3ncc(-c4cc5ccccc5o4)n3n2)C1 [Example 20, 1-(trans-3-{[3-(1-Benzofuran-2-yl)imidazo[1,2-b]pyridazin-6-yl]oxy}cyclobutyl)-methanamine]	0.004 µM	0.006 µM
N[C@H]1C[C@H](COc2ccc3ncc(-c4cc5ccccc5o4)n3n2)C1 [Example 22, trans-3-({[3-(1-Benzofuran-2-yl)imidazo[1,2-b]pyridazin-6-yl]oxy}methyl)cyclobutanamine]	0.006 µM	0.017 µM
N[C@H]1CCC[C@@H]1Oc1ccc2ncc(-c3cc4ccccc4o3)n2n1 [Example 24, (1S,2S)-2-{[3-(1-Benzofuran-2-yl)imidazo[1,2-b]pyridazin-6-yl]oxy}cyclopentan-amine]	0.01 µM	0.019 µM
N[C@H]1CCC[C@H]1Oc1ccc2ncc(-c3cc4ccccc4o3)n2n1 [Example 25, (1S,2R)-2-{[3-(1-Benzofuran-2-yl)imidazo[1,2-b]pyridazin-6-yl]oxy}cyclopentan-amine salt with formic acid]	0.007 µM	0.022 µM
NCC(Cc1ccccc1)Oc1ccc2ncc(-c3cc4ccccc4o3)n2n1 (centres unmarked) [Example 26, 2-{[3-(1-Benzofuran-2-yl)imidazo[1,2-b]pyridazin-6-yl]oxy}-3-phenylpropan-1-amine salt with formic acid]	0.015 µM	0.025 µM
NCC(Oc1ccc2ncc(-c3cc4ccccc4o3)n2n1)C1CC1 (centres unmarked) [Example 30, 2-{[3-(1-Benzofuran-2-yl)imidazo[1,2-b]pyridazin-6-yl]oxy}-2-cyclopropylethan-amine]	0.041 µM	0.075 µM
NCC(CN)Oc1ccc2ncc(-c3cc4ccccc4o3)n2n1 [Example 34, 2-{[3-(1-Benzofuran-2-yl)imidazo[1,2-b]pyridazin-6-yl]oxy}propane-1,3-diamine]	0.039 µM	0.092 µM
NCC(Oc1ccc2ncc(-c3cc4ccccc4o3)n2n1)C1CCOC1 (centres unmarked) [Example 35, 2-{[3-(1-Benzofuran-2-yl)imidazo[1,2-b]pyridazin-6-yl]oxy}-2-(tetrahydrofuran-3-yl)ethanamine]	0.032 µM	0.052 µM
N[C@H]1C[C@H](Oc2ccc3ncc(-c4cc5c(F)cccc5o4)n3n2)C1 [Example 36, trans-3-{[3-(4-Fluoro-1-benzofuran-2-yl)imidazo[1,2-b]pyridazin-6-yl]oxy}-cyclobutanamine]	0.001 µM	0.002 µM
N[C@H]1C[C@H](Oc2ccc3ncc(-c4cc5cc(Cl)ccc5o4)n3n2)C1 [Example 37, trans-3-{[3-(5-Chloro-1-benzofuran-2-yl)imidazo[1,2-b]pyridazin-6-yl]oxy}-cyclobutanamine]	0.004 µM	0.005 µM
COc1ccc2oc(-c3cnc4ccc(O[C@H]5C[C@H](N)C5)nn34)cc2c1 [Example 38, trans-3-{[3-(5-Methoxy-1-benzofuran-2-yl)imidazo[1,2-b]pyridazin-6-yl]oxy}-cyclobutanamine]	0.003 µM	0.006 µM
N[C@H]1C[C@H](Oc2ccc3ncc(-c4cc5cc(F)ccc5o4)n3n2)C1 [Example 39, trans-3-{[3-(5-Fluoro-1-benzofuran-2-yl)imidazo[1,2-b]pyridazin-6-yl]oxy}-cyclobutanamine]	0.003 µM	0.006 µM
CC(CN)COc1ccc2ncc(-c3cc4ccccc4o3)n2n1 (centres unmarked) [Example 40, 3-{[3-(1-Benzofuran-2-yl)imidazo[1,2-b]pyridazin-6-yl]oxy}-2-methylpropan-1-amine]	0.009 µM	0.018 µM
COc1cccc2oc(-c3cnc4ccc(OCC(N)C5CC5)nn34)cc12 (centres unmarked) [Example 41, 1-Cyclopropyl-2-{[3-(4-methoxy-1-benzofuran-2-yl)imidazo[1,2-b]pyridazin-6-yl]oxy}ethanamine]	0.012 µM	0.027 µM
C[C@@H](N)COc1ccc2ncc(-c3cc4ccccc4o3)n2n1 [Example 42, (2R)-1-{[3-(1-Benzofuran-2-yl)imidazo[1,2-b]pyridazin-6-yl]oxy}propan-2-amine]	0.015 µM	0.043 µM
C[C@@H](N)COc1ccc2ncc(-c3cc4cc(Cl)ccc4o3)n2n1 [Example 43, (2R)-1-{[3-(5-Chloro-1-benzofuran-2-yl)imidazo[1,2-b]pyridazin-6-yl]oxy}-propan-2-amine]	0.033 µM	0.062 µM
NCC1(COc2ccc3ncc(-c4cc5ccccc5o4)n3n2)COC1 [Example 44, 1-[3-({[3-(1-Benzofuran-2-yl)imidazo[1,2-b]pyridazin-6-yl]oxy}methyl)oxetan-3-yl]methanamine]	0.052 µM	0.063 µM
